Experimental data taken from the supplement of paper PMC11208160.

Assay: recombinant UMI read abundance after kanamycin selection (control-corrected) (log10(CPM+1)); higher = more efficient recombination; extreme values may be limits of the assay; sequences stand for … in AGTGCAGAGAAAATCGGCCAGTTTTCTCTGCCTGCAGTCCGCATGCCGTGGGACCCCTTGGGTTCTAACCTGTTGCCTAGATTTATGCAGCGGACTGCCTTTCTCCCAAAGTGATAAACCGG…AGGTTGGTTTCACT; site = the 11-nt donor
Outline: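 Values, expressed as log10(CPM+1), derive from recombinant UMI counts converted to CPM, averaged across replicates and scaled by control-derived factors. Plating was with IPTG (0.07 mM) plus kanamycin or unselected, two replicates each. The screen pooled donor and donor-binding-loop pairs for the IS621 bridge recombinase in Escherichia coli.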
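Further: IS621 bridge recombinase in Escherichia coli cells against a fixed T5 target plasmid.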

| Sequence | recombinant UMI read abundance (log10) |
| --- | --- |
| CGAGTATCATGGACCGGTTTTCCCGGTAATCCGTATTTGAT (site CTAGTATCTGT) | 0 |
| CGATAATCATGGACCGGTTTTCCCGGTAATCCGTATTTGCG (site CGATAATCTCG) | 3.34 |
| CGATAATCATGGACCGGTTTTCCCGGTAATCCGTATTTGCG (site CGATCATCTAG) | 0 |
| CGATCAACATGGACCGGTTTTCCCGGTAATCCGTATTTGTT (site CGATCAACTAA) | 0.0564 |
| CGATCAACATGGACCGGTTTTCCCGGTAATCCGTATTTGTT (site CGATCCACTAA) | 0.0118 |
| CGATCAACATGGACCGGTTTTCCCGGTAATCCGTATTTGTT (site CGATCGACTAA) | 0.00905 |
| CGATCAACATGGACCGGTTTTCCCGGTAATCCGTATTTGTT (site CGATCTACTAA) | 0.00984 |
| CGATCACCATGGACCGGTTTTCCCGGTAATCCGTATTTGAT (site CGATCACCTAT) | 0.00371 |
| CGATCACCATGGACCGGTTTTCCCGGTAATCCGTATTTGAT (site CGATCATCTAG) | 0 |
| CGATCATCATGGACCGGTTTTCCCGGTAATCCGTATTTGCT (site ACATCATCTAG) | 1.28 |
| CGATCATCATGGACCGGTTTTCCCGGTAATCCGTATTTGCT (site AGAGCATCTAG) | 0 |
| CGATCATCATGGACCGGTTTTCCCGGTAATCCGTATTTGCT (site AGATCAGCTAG) | 0.00274 |
| CGATCATCATGGACCGGTTTTCCCGGTAATCCGTATTTGCT (site AGATCATCTAA) | 0.00548 |
| CGATCATCATGGACCGGTTTTCCCGGTAATCCGTATTTGCT (site AGATCATCTAG) | 2.17 |
| CGATCATCATGGACCGGTTTTCCCGGTAATCCGTATTTGCT (site AGATCATCTTG) | 0 |
| CGATCATCATGGACCGGTTTTCCCGGTAATCCGTATTTGCT (site AGATCTTCTAG) | 0 |
| CGATCATCATGGACCGGTTTTCCCGGTAATCCGTATTTGCT (site AGATTATCTAG) | 0.017 |
| CGATCATCATGGACCGGTTTTCCCGGTAATCCGTATTTGCT (site AGGTCATCTAG) | 0 |
| CGATCATCATGGACCGGTTTTCCCGGTAATCCGTATTTGCT (site CAAACATCTAG) | 1.6 |
| CGATCATCATGGACCGGTTTTCCCGGTAATCCGTATTTGCT (site CAATCACCTAG) | 0 |
| CGATCATCATGGACCGGTTTTCCCGGTAATCCGTATTTGCT (site CAATCATCTAG) | 1.62 |
| CGATCATCATGGACCGGTTTTCCCGGTAATCCGTATTTGCT (site CAATCATCTAT) | 0 |
| CGATCATCATGGACCGGTTTTCCCGGTAATCCGTATTTGCT (site CAATCATCTGG) | 0 |
| CGATCATCATGGACCGGTTTTCCCGGTAATCCGTATTTGCT (site CAATCGTCTAG) | 0.00456 |
| CGATCATCATGGACCGGTTTTCCCGGTAATCCGTATTTGCT (site CAATGATCTAG) | 0 |

| Sequence | recombinant UMI read abundance (log10) |
| --- | --- |
| CGATCATCATGGACCGGTTTTCCCGGTAATCCGTATTTGCT (site CATTCATCTAG) | 1.44 |
| CGATCATCATGGACCGGTTTTCCCGGTAATCCGTATTTGCT (site CCAGCATCTAG) | 0.0355 |
| CGATCATCATGGACCGGTTTTCCCGGTAATCCGTATTTGCT (site CCATCAGCTAG) | 0 |
| CGATCATCATGGACCGGTTTTCCCGGTAATCCGTATTTGCT (site CCATCATCTAA) | 0 |
| CGATCATCATGGACCGGTTTTCCCGGTAATCCGTATTTGCT (site CCATCATCTAG) | 0.987 |
| CGATCATCATGGACCGGTTTTCCCGGTAATCCGTATTTGCT (site CCATCATCTTG) | 0 |
| CGATCATCATGGACCGGTTTTCCCGGTAATCCGTATTTGCT (site CCATCTTCTAG) | 0 |
| CGATCATCATGGACCGGTTTTCCCGGTAATCCGTATTTGCT (site CCATTATCTAG) | 0 |
| CGATCATCATGGACCGGTTTTCCCGGTAATCCGTATTTGCT (site CCGTCATCTAG) | 0.747 |
| CGATCATCATGGACCGGTTTTCCCGGTAATCCGTATTTGCT (site CGAACACCTAG) | 0 |
| CGATCATCATGGACCGGTTTTCCCGGTAATCCGTATTTGCT (site CGAACATCTAG) | 0.278 |
| CGATCATCATGGACCGGTTTTCCCGGTAATCCGTATTTGCT (site CGAACATCTAT) | 0.00401 |
| CGATCATCATGGACCGGTTTTCCCGGTAATCCGTATTTGCT (site CGAACATCTGG) | 0 |
| CGATCATCATGGACCGGTTTTCCCGGTAATCCGTATTTGCT (site CGAACGTCTAG) | 0.00334 |
| CGATCATCATGGACCGGTTTTCCCGGTAATCCGTATTTGCT (site CGAAGATCTAG) | 0 |
| CGATCATCATGGACCGGTTTTCCCGGTAATCCGTATTTGCT (site CGACAATCTAG) | 0.437 |
| CGATCATCATGGACCGGTTTTCCCGGTAATCCGTATTTGCT (site CGACCAACTAG) | 0.00386 |
| CGATCATCATGGACCGGTTTTCCCGGTAATCCGTATTTGCT (site CGACCATCTAC) | 0 |
| CGATCATCATGGACCGGTTTTCCCGGTAATCCGTATTTGCT (site CGACCATCTAG) | 2.55 |
| CGATCATCATGGACCGGTTTTCCCGGTAATCCGTATTTGCT (site CGACCATCTCG) | 0.019 |
| CGATCATCATGGACCGGTTTTCCCGGTAATCCGTATTTGCT (site CGACCCTCTAG) | 0.00441 |
| CGATCATCATGGACCGGTTTTCCCGGTAATCCGTATTTGCT (site CGAGCAGCTAG) | 0 |
| CGATCATCATGGACCGGTTTTCCCGGTAATCCGTATTTGCT (site CGAGCATCTAA) | 0.0187 |
| CGATCATCATGGACCGGTTTTCCCGGTAATCCGTATTTGCT (site CGAGCATCTAG) | 0 |
| CGATCATCATGGACCGGTTTTCCCGGTAATCCGTATTTGCT (site CGAGCATCTTG) | 0 |

| Sequence | recombinant UMI read abundance (log10) |
| --- | --- |
| CGATCATCATGGACCGGTTTTCCCGGTAATCCGTATTTGCT (site CGAGCTTCTAG) | 0 |
| CGATCATCATGGACCGGTTTTCCCGGTAATCCGTATTTGCT (site CGAGTATCTAG) | 0 |
| CGATCATCATGGACCGGTTTTCCCGGTAATCCGTATTTGCT (site CGATAAACTAG) | 0.0203 |
| CGATCATCATGGACCGGTTTTCCCGGTAATCCGTATTTGCT (site CGATAATCTAC) | 0 |
| CGATCATCATGGACCGGTTTTCCCGGTAATCCGTATTTGCT (site CGATAATCTAG) | 0.558 |
| CGATCATCATGGACCGGTTTTCCCGGTAATCCGTATTTGCT (site CGATAATCTCG) | 0 |
| CGATCATCATGGACCGGTTTTCCCGGTAATCCGTATTTGCT (site CGATACTCTAG) | 0 |
| CGATCATCATGGACCGGTTTTCCCGGTAATCCGTATTTGCT (site CGATCAACTAC) | 0.0107 |
| CGATCATCATGGACCGGTTTTCCCGGTAATCCGTATTTGCT (site CGATCAACTAG) | 0 |
| CGATCATCATGGACCGGTTTTCCCGGTAATCCGTATTTGCT (site CGATCAACTCG) | 0 |
| CGATCATCATGGACCGGTTTTCCCGGTAATCCGTATTTGCT (site CGATCACCTAG) | 0 |
| CGATCATCATGGACCGGTTTTCCCGGTAATCCGTATTTGCT (site CGATCACCTAT) | 0.0275 |
| CGATCATCATGGACCGGTTTTCCCGGTAATCCGTATTTGCT (site CGATCACCTGG) | 0.009 |
| CGATCATCATGGACCGGTTTTCCCGGTAATCCGTATTTGCT (site CGATCAGCTAA) | 0.00801 |
| CGATCATCATGGACCGGTTTTCCCGGTAATCCGTATTTGCT (site CGATCAGCTAG) | 0 |
| CGATCATCATGGACCGGTTTTCCCGGTAATCCGTATTTGCT (site CGATCAGCTTG) | 0 |
| CGATCATCATGGACCGGTTTTCCCGGTAATCCGTATTTGCT (site CGATCATCTAA) | 0 |
| CGATCATCATGGACCGGTTTTCCCGGTAATCCGTATTTGCT (site CGATCATCTAC) | 0 |
| CGATCATCATGGACCGGTTTTCCCGGTAATCCGTATTTGCT (site CGATCATCTAG) | 1.82 |
| CGATCATCATGGACCGGTTTTCCCGGTAATCCGTATTTGCT (site CGATCATCTAT) | 0 |
| CGATCATCATGGACCGGTTTTCCCGGTAATCCGTATTTGCT (site CGATCATCTCC) | 0.00455 |
| CGATCATCATGGACCGGTTTTCCCGGTAATCCGTATTTGCT (site CGATCATCTCG) | 0 |
| CGATCATCATGGACCGGTTTTCCCGGTAATCCGTATTTGCT (site CGATCATCTGG) | 0 |
| CGATCATCATGGACCGGTTTTCCCGGTAATCCGTATTTGCT (site CGATCATCTGT) | 0 |
| CGATCATCATGGACCGGTTTTCCCGGTAATCCGTATTTGCT (site CGATCATCTTA) | 0 |
